# Experimental data published in publication PMC7377239, “Cardiovascular Effects of Polychlorinated Biphenyls and Their Major Metabolites” (Environmental Health Perspectives, 2020).
# Where two headings read alike, the source gives them in different places.
# What was measured:
# [1] = test system: iCell endothelial cells (human iPSC-derived ECs); assay: High-content imaging cytotoxicity in iCell endothelial cells, 24 h; assay type: cell-based; conditions: for viability at 0.01 µM / activity at 0.01 µM / viability at 0.1 µM / activity at 0.1 µM / viability at 1 µM / activity at 1 µM / viability at 10 µM / activity at 10 µM / viability at 100 µM / activity at 100 µM / minimal effective concentration: Homo sapiens, Endothelial cell, 24 hr; for viability at 0.1 µM / activity at 0.1 µM: 0.10 µM
# Outline: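 Readouts were vehicle-normalised and fitted to a four-parameter logistic model. POD was set at one SD beyond 0.5% DMSO control means, and 100 µM was assigned when no response was seen. Cells were monolayers of iCell endothelial cells imaged after 24 h compound exposure using nuclear, mitochondrial and calcein dyes.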
# [2] = test system: iCell endothelial cells (human iPSC-derived ECs); assay: Tube formation (tubulogenesis) assay in iCell endothelial cells, 18 h; assay type: cell-based; conditions: Homo sapiens, Endothelial cell, 18 hr; for activity at 0.1 µM: 0.10 µM
# Outline: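 Tube formation was measured by calcein AM imaging after overnight compound exposure (37°C, 0.5% DMSO vehicle) of human iPSC-derived ECs, 7,500/well, on reduced-growth-factor Geltrex in starvation medium. Vehicle-normalized data fitted to four-parameter logistic; POD set at one vehicle SD; without response, 100 μM taken as NOAEL.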
# [3] = iPSC-EC, 0.00 µM control = 100.00, read-out: endo.cyto.24hr
# [4] = iPSC-EC, 0.00 µM control = 100.00, read-out: endo.mito.24hr
# [5] = iPSC-EC, 0.00 µM control = 100.00, read-out: endo.mitoint.24hr
# [6] = iPSC-EC, 0.00 µM control = 100.00, read-out: endo.nma.24hr
# [7] = iPSC-EC, 0.00 µM control = 100.00, read-out: endo.tc.24hrs
# [8] = iPSC-EC tube formation, 0.00 µM control = 100.00, read-out: endo.mtl.18hr
# [9] = iPSC-EC tube formation, 0.00 µM control = 100.00, read-out: endo.tlps.18hr
# [10] = iPSC-EC tube formation, 0.00 µM control = 100.00, read-out: endo.tta.18hr
# [11] = iPSC-EC tube formation, 0.00 µM control = 100.00, read-out: endo.ttl.18hr
smiles,measurement,setting,value
Oc1ccc(-c2cccc(Cl)c2)cc1Cl [4-OH PCB11],viability at 0.01 µM,[1]; [3],99.5%
same,activity at 0.01 µM,[1]; [4],99.5%
same,activity at 0.01 µM,[1]; [5],103%
same,activity at 0.01 µM,[1]; [6],103%
same,viability at 0.01 µM,[1]; [7],99.5%
same,viability at 0.1 µM,[1]; [3],102%
same,activity at 0.1 µM,[1]; [4],102%
same,activity at 0.1 µM,[1]; [5],94.9%
same,activity at 0.1 µM,[1]; [6],99.2%
same,viability at 0.1 µM,[1]; [7],102%
same,viability at 1 µM,[1]; [3],97.1%
same,activity at 1 µM,[1]; [4],96.8%
same,activity at 1 µM,[1]; [5],97.1%
same,activity at 1 µM,[1]; [6],102%
same,viability at 1 µM,[1]; [7],97.1%
same,viability at 10 µM,[1]; [3],106%
same,activity at 10 µM,[1]; [4],106%
same,activity at 10 µM,[1]; [5],92.4%
same,activity at 10 µM,[1]; [6],97.2%
same,viability at 10 µM,[1]; [7],106%
same,viability at 100 µM,[1]; [3],57.3%
same,activity at 100 µM,[1]; [4],52.7%
same,activity at 100 µM,[1]; [5],68%
same,activity at 100 µM,[1]; [6],88%
same,viability at 100 µM,[1]; [7],78.1%
same,minimal effective concentration,"[1]; iPSC-EC, top concentration 100.00 µM, read-out: endo.cyto.24hr POD",43.6 µM
same,minimal effective concentration,"[1]; iPSC-EC, top concentration 100.00 µM, read-out: endo.mito.24hr POD",43.6 µM
same,minimal effective concentration,"[1]; iPSC-EC, top concentration 100.00 µM, read-out: endo.mitoint.24hr POD",13 µM
same,minimal effective concentration,"[1]; iPSC-EC, top concentration 100.00 µM, read-out: endo.nma.24hr POD",9.66 µM
same,minimal effective concentration,"[1]; iPSC-EC, top concentration 100.00 µM, read-out: endo.tc.24hrs POD",62.1 µM
same,activity at 0.01 µM,[2]; [8],108%
same,activity at 0.01 µM,[2]; [9],105%
same,activity at 0.01 µM,[2]; [10],164%
same,activity at 0.01 µM,[2]; [11],164%
same,activity at 0.1 µM,[2]; [8],111%
same,activity at 0.1 µM,[2]; [9],99.3%
same,activity at 0.1 µM,[2]; [10],131%
same,activity at 0.1 µM,[2]; [11],135%
same,activity at 1 µM,[2]; [8],106%
same,activity at 1 µM,[2]; [9],114%
same,activity at 1 µM,[2]; [10],144%
same,activity at 1 µM,[2]; [11],144%
same,activity at 10 µM,[2]; [8],95.5%
same,activity at 10 µM,[2]; [9],119%
same,activity at 10 µM,[2]; [10],87.6%
same,activity at 10 µM,[2]; [11],85.5%
same,activity at 100 µM,[2]; [8],52.6%
same,activity at 100 µM,[2]; [9],14.8%
same,activity at 100 µM,[2]; [10],9.99%
same,activity at 100 µM,[2]; [11],11.5%
same,minimal effective concentration,"[2]; iPSC-EC tube formation, top concentration 100.00 µM, read-out: endo.mtl.18hr POD",17.7 µM
same,minimal effective concentration,"[2]; iPSC-EC tube formation, top concentration 100.00 µM, read-out: endo.tlps.18hr POD",52.5 µM
same,minimal effective concentration,"[2]; iPSC-EC tube formation, top concentration 100.00 µM, read-out: endo.tta.18hr POD",15.8 µM
same,minimal effective concentration,"[2]; iPSC-EC tube formation, top concentration 100.00 µM, read-out: endo.ttl.18hr POD",16.1 µM
"Clc1cccc(-c2cccc(Cl)c2)c1 [PCB 11, 3,3′-Dichlorobiphenyl]",minimal effective concentration,"[1]; endothelial cells (endo), cyto, read-out: POD endo.cyto.24hr",100 µM
same,minimal effective concentration,"[1]; endothelial cells (endo), mito, read-out: POD endo.mito.24hr",100 µM
same,minimal effective concentration,"[1]; endothelial cells (endo), mitoint, read-out: POD endo.mitoint.24hr",100 µM
same,minimal effective concentration,"[1]; endothelial cells (endo), nma, read-out: POD endo.nma.24hr",100 µM
same,minimal effective concentration,"[1]; endothelial cells (endo), tc, read-out: POD endo.tc.24hr",100 µM
same,effect on cell viability in iPSC-ECs,"[1]; iPSC-ECs, 0.01-100 μM",did not affect cell viability
same,minimal effective concentration,"[2]; endothelial cells (endo), tube formation mtl, read-out: POD endo.mtl.18hr",100 µM
same,minimal effective concentration,"[2]; endothelial cells (endo), tube formation tlps, read-out: POD endo.tlps.18hr",100 µM
same,minimal effective concentration,"[2]; endothelial cells (endo), tube formation tta, read-out: POD endo.tta.18hr",100 µM
same,minimal effective concentration,"[2]; endothelial cells (endo), tube formation ttl, read-out: POD endo.ttl.18hr",100 µM
